From patent US20150374673A1, “Combination Therapy for the Treatment of Nosocomial Pneumonia” (priority 2013, published 2015)
Where two headings read alike, the source gives them in different places.

What was measured:
[1] = Serum and epithelial lining fluid (ELF) pharmacokinetics of ceftazidime-avibactam human simulated regimen in infected and uninfected mice; details: for fT > MIC: human simulated CAZ-AVI 2000-500 mg q8h 2 h infusion
Procedure: Pathogen-free, female ICR mice weighing approximately 25 g were acquired from Harlan Sprague Dawley, Inc. (Indianapolis, Ind.) and utilized throughout these experiments. Animals were maintained and used in accordance to National Research Council recommendations, and provided food and water ad libitum. Mice were rendered neutropenic with 100 and 250 mg/kg intraperitoneal injections of cyclophosphamide (Cytoxan®; Bristol-Myers Squibb, Princeton, N.J.) given one and four days prior to inoculation, respectively. Three days prior to inoculation, mice were also given a single 5 mg/kg intraperitoneal injection of uranyl nitrate. This produces a predictable degree of renal impairment to slow drug clearance. Two hours prior to the initiation of antimicrobial therapy, mice were lightly anesthetized using isofluorane (2.5% v/v in 100% oxygen carrier) until the respiratory rate decreased upon visual inspection. Pneumonia was induced by the instillation of 0.05 mL of a 10^7 CFU inoculum of the test isolate suspended in 3% mucin in normal saline. While the mouse is anesthetized, the inoculum is delivered into the animal's oral cavity, blocking the nares and holding the mouse in a vertical position. Aspiration of bacteria into the lungs occurred as the animals began to spontaneously respire.
In these studies, we utilized the previously determined dosing regimen described above. Confirmatory serum pharmacokinetic studies were undertaken in infected mice. For these studies, infected neutropenic mice were dosed with the above calculated regimen and groups of six mice ? were euthanized at multiple time points throughout a 24 h period to confirm target exposures blood was collected via cardiac puncture and the serum samples were stored at −80° C. until analysis. Pharmacokinetic studies were undertaken to describe the epithelial lining fluid concentrations in infected mice. For these studies, infected neutropenic mice were dosed with the above calculated regimen and groups of six mice were euthanized at multiple time points throughout the third dosing period (i.e. 16-24 h). Once euthanized, serum and BAL samples were collected as described above. Serum and BAL samples were stored at −80° C. until analysis.

[2] = test system: Gram-positive or Gram-negative bacterial strains; experiment: MIC in pulmonary surfactant compared with CAMHB alone, whole strain panel; assay type: cell-based; details: up to 10% pulmonary surfactant vs CAMHB alone; any strain tested
Procedure: (§1) The bacterial strains used in this testing were part of the microbiological culture collection housed at AstraZeneca R&D Boston (AstraZeneca Research Collection, designated ARC). The panel of bacterial isolates used for this testing was comprised of five CLSI QC reference strains and the remainder were either recent clinical isolates expressing β-lactamases or isolates from the primary bacterial screening panels.
(§2) MIC values were determined using the CLSI broth microdilution methodology with slight variation. Stock compound mother plates were prepared and used to spot 2 μL aliquots of serial 2-fold drug dilutions to columns 1-11 of 96-well daughter plates using a Perkin-Elmer MiniTrak™ MultiPosition dispenser. […] An inoculum volume of 100 μL (5×10E^5 CFU/mL) in CAMHB containing 0, 1, 2.5, 5, or 10% pulmonary surfactant was added using a multichannel Finnpipette® to each well of the 96-well plate.
The minimum inhibitory concentration (MIC) values against each organism/drug combination were determined using broth microdilution methodology according to CLSI guidelines. The recommended reference bacterial strains for each test group and reference compounds were incorporated into each test. […]
MIC values for individual isolates were read visually. […]

E. coli = experiment: MIC, CLSI broth microdilution in CAMHB with 0-10% pulmonary surfactant (avibactam fixed at 4 μg/mL in combination); assay type: cell-based; details: Escherichia coli
Procedure: as §1, §2
(§3) The minimum inhibitory concentration (MIC) values against each organism/drug combination were determined using broth microdilution methodology according to CLSI guidelines. The recommended reference bacterial strains for each test group and reference compounds were incorporated into each test. For Gram-negatives, the reference bacterial strains were Escherichia coli ATCC 25922, E. coli ATCC 35218, Klebsiella pneumoniae ATCC 700603, and Pseudomonas aeruginosa ATCC 27853. Staphylococcus aureus ATCC 29213 was the reference bacterial strain for the Gram-positives.
(§4) MIC values for individual isolates were read visually. The MICs for each compound or combination in pulmonary surfactant was compared to the compound or combination tested in CAMHB alone.

[3] = Protein binding, equilibrium dialysis chamber, LC-MS/MS; assay type: in vitro ADME
Procedure: Blood was separated from plasma using a cooled centrifuge. Samples were split and stored at −80° C.

S. aureus = experiment: MIC, CLSI broth microdilution in CAMHB with 0-10% pulmonary surfactant (avibactam fixed at 4 μg/mL in combination); assay type: cell-based, Staphylococcus aureus
Procedure: as §1, §2, §3, §4

P. aeruginosa = experiment: as above; assay type: cell-based, Pseudomonas aeruginosa; details: Pseudomonas aeruginosa, read-out: MIC
Procedure: as §1, §2, §3, §4

[4] = female, ICR, mouse, epithelial lining fluid (ELF) vs serum, ELF point Penetration Ratio, infected mice, ELF vs serum, third dosing interval
[5] = female, ICR, mouse, epithelial lining fluid (ELF) vs serum, ELF point Penetration Ratio, uninfected mice, ELF vs serum, third dosing interval

## CC(C)(O/N=C(\C(=O)N[C@@H]1C(=O)N2C(C(=O)[O-])=C(C[n+]3ccccc3)CS[C@H]12)c1csc(N)n1)C(=O)O [ceftazidime, (6R,7R)-7-[[(2Z)-2-(2-amino-1,3-thiazol-4-yl)-2-(1-hydroxy-2-methyl-1-oxopropan-2-yl)oxyiminoacetyl]amino]-8-oxo-3-(pyridin-1-ium-1-ylmethyl)-5-thia-1-azabicyclo[4.2.0]oct-2-ene-2-carboxylate pentahydrate]
[1]; MIC 4, ELF, infected mice
  fT > MIC: 100%
[1]; MIC 4, ELF, uninfected mice
  fT > MIC: 100%
[1]; MIC 4, Serum, infected mice
  fT > MIC: 100%
[1]; MIC 4, Serum, uninfected mice
  fT > MIC: 100%
[1]; MIC 32, ELF, infected mice
  fT > MIC: 0%
[1]; MIC 32, ELF, uninfected mice
  fT > MIC: 34%
[1]; MIC 32, Serum, infected mice
  fT > MIC: 50%
[1]; MIC 32, Serum, uninfected mice
  fT > MIC: 62%
[1]; [4]
  Kp at 16 h: 2.13
  Kp at 18.5 h: 0.8
  Kp at 24 h: 0.95
[1]; female, ICR, mouse, epithelial lining fluid (ELF) vs serum, ELF point Penetration Ratio, infected mice, 22 h, ELF vs serum, third dosing interval
  Kp at 22 h: 0.3
[1]; [5]
  Kp at 16 h: 1.02
  Kp at 18.5 h: 0.8
  Kp at 24 h: 0.64
[2]
  MIC increase in pulmonary surfactant: no MIC increases were observed
E. coli; ATCC25922, E. coli ARC4 (CLSI QC strain, ATCC 25922), surfactant 0%
  MIC: 0.25 µg/mL
E. coli; ATCC25922, E. coli ARC4 (CLSI QC strain, ATCC 25922), surfactant 1%
  MIC: 0.25 µg/mL
E. coli; ATCC25922, E. coli ARC4 (CLSI QC strain, ATCC 25922), surfactant 2.5%
  MIC: 0.25 µg/mL
E. coli; ATCC25922, E. coli ARC4 (CLSI QC strain, ATCC 25922), surfactant 5%
  MIC: 0.25 µg/mL
E. coli; ATCC25922, E. coli ARC4 (CLSI QC strain, ATCC 25922), surfactant 10%
  MIC: 0.25 µg/mL
E. coli; ATCC35218, E. coli ARC016 (ATCC 35218, TEM-1), surfactant 0%
  MIC: 0.12 µg/mL
E. coli; ATCC35218, E. coli ARC016 (ATCC 35218, TEM-1), surfactant 1%
  MIC: 0.12 µg/mL
E. coli; ATCC35218, E. coli ARC016 (ATCC 35218, TEM-1), surfactant 2.5%
  MIC: 0.12 µg/mL
E. coli; ATCC35218, E. coli ARC016 (ATCC 35218, TEM-1), surfactant 5%
  MIC: 0.12 µg/mL
E. coli; ATCC35218, E. coli ARC016 (ATCC 35218, TEM-1), surfactant 10%
  MIC: 0.12 µg/mL
E. coli; E. coli ARC523 (W3110), surfactant 0%
  MIC: 0.5 µg/mL
E. coli; E. coli ARC523 (W3110), surfactant 1%
  MIC: 0.5 µg/mL
E. coli; E. coli ARC523 (W3110), surfactant 2.5%
  MIC: 0.25 µg/mL
E. coli; E. coli ARC523 (W3110), surfactant 5%
  MIC: 0.5 µg/mL
E. coli; E. coli ARC523 (W3110), surfactant 10%
  MIC: 0.5 µg/mL
E. coli; E. coli ARC3666 (CTX-M-15, OXA-1/30, SHV-31, TEM-1), surfactant 0%
  MIC: 32 µg/mL
E. coli; E. coli ARC3666 (CTX-M-15, OXA-1/30, SHV-31, TEM-1), surfactant 1%
  MIC: 32 µg/mL
E. coli; E. coli ARC3666 (CTX-M-15, OXA-1/30, SHV-31, TEM-1), surfactant 2.5%
  MIC: 32 µg/mL
E. coli; E. coli ARC3666 (CTX-M-15, OXA-1/30, SHV-31, TEM-1), surfactant 5%
  MIC: 32 µg/mL
E. coli; E. coli ARC3666 (CTX-M-15, OXA-1/30, SHV-31, TEM-1), surfactant 10%
  MIC: 32 µg/mL
E. coli; E. coli ARC3690 (CTX-M-15, SHV-12), surfactant 0%
  MIC: 64 µg/mL
E. coli; E. coli ARC3690 (CTX-M-15, SHV-12), surfactant 1%
  MIC: 64 µg/mL
E. coli; E. coli ARC3690 (CTX-M-15, SHV-12), surfactant 2.5%
  MIC: 64 µg/mL
E. coli; E. coli ARC3690 (CTX-M-15, SHV-12), surfactant 5%
  MIC: 64 µg/mL
E. coli; E. coli ARC3690 (CTX-M-15, SHV-12), surfactant 10%
  MIC: 64 µg/mL
[3]
  fraction unbound: 0.9
S. aureus; S. aureus ARC12 (CLSI QC strain, ATCC 29213), surfactant 0%
  MIC: 8 µg/mL
S. aureus; S. aureus ARC12 (CLSI QC strain, ATCC 29213), surfactant 1%
  MIC: 16 µg/mL
S. aureus; S. aureus ARC12 (CLSI QC strain, ATCC 29213), surfactant 2.5%
  MIC: 16 µg/mL
S. aureus; S. aureus ARC12 (CLSI QC strain, ATCC 29213), surfactant 5%
  MIC: 8 µg/mL
S. aureus; S. aureus ARC12 (CLSI QC strain, ATCC 29213), surfactant 10%
  MIC: 8 µg/mL
S. aureus; S. aureus ARC516 (MRSA, quinolone-resistant), surfactant 0%
  MIC: >64 µg/mL
S. aureus; S. aureus ARC516 (MRSA, quinolone-resistant), surfactant 1%
  MIC: >64 µg/mL
S. aureus; S. aureus ARC516 (MRSA, quinolone-resistant), surfactant 2.5%
  MIC: >64 µg/mL
S. aureus; S. aureus ARC516 (MRSA, quinolone-resistant), surfactant 5%
  MIC: >64 µg/mL
S. aureus; S. aureus ARC516 (MRSA, quinolone-resistant), surfactant 10%
  MIC: >64 µg/mL
P. aeruginosa; ATCC27853, P. aeruginosa ARC3 (CLSI QC strain, ATCC 27853), surfactant 1%
  MIC: 1 µg/mL
P. aeruginosa; ATCC27853, P. aeruginosa ARC3 (CLSI QC strain, ATCC 27853), surfactant 2.5%
  MIC: 2 µg/mL
P. aeruginosa; ATCC27853, P. aeruginosa ARC3 (CLSI QC strain, ATCC 27853), surfactant 5%
  MIC: 1 µg/mL
P. aeruginosa; ATCC27853, P. aeruginosa ARC3 (CLSI QC strain, ATCC 27853), surfactant 10%
  MIC: 2 µg/mL
P. aeruginosa; ATCC27853, P. aeruginosa ARC3 (CLSI QC strain, ATCC 27853), surfactant 0%
  MIC: 1 µg/mL
P. aeruginosa; P. aeruginosa ARC2532 (Clinical isolate), surfactant 0%
  MIC: 2 µg/mL
P. aeruginosa; P. aeruginosa ARC2532 (Clinical isolate), surfactant 1%
  MIC: 2 µg/mL
P. aeruginosa; P. aeruginosa ARC2532 (Clinical isolate), surfactant 2.5%
  MIC: 2 µg/mL
P. aeruginosa; P. aeruginosa ARC2532 (Clinical isolate), surfactant 5%
  MIC: 2 µg/mL
P. aeruginosa; P. aeruginosa ARC2532 (Clinical isolate), surfactant 10%
  MIC: 2 µg/mL
P. aeruginosa; P. aeruginosa ARC2761 (Clinical isolate), surfactant 1%
  MIC: 2 µg/mL
P. aeruginosa; P. aeruginosa ARC2761 (Clinical isolate), surfactant 2.5%
  MIC: 1 µg/mL
P. aeruginosa; P. aeruginosa ARC2761 (Clinical isolate), surfactant 5%
  MIC: 2 µg/mL
P. aeruginosa; P. aeruginosa ARC2761 (Clinical isolate), surfactant 10%
  MIC: 2 µg/mL
P. aeruginosa; P. aeruginosa ARC3508 (derepressed AmpC), surfactant 0%
  MIC: 32 µg/mL
P. aeruginosa; P. aeruginosa ARC3508 (derepressed AmpC), surfactant 1%
  MIC: 32 µg/mL
P. aeruginosa; P. aeruginosa ARC3508 (derepressed AmpC), surfactant 2.5%
  MIC: 32 µg/mL
P. aeruginosa; P. aeruginosa ARC3508 (derepressed AmpC), surfactant 5%
  MIC: 32 µg/mL
P. aeruginosa; P. aeruginosa ARC3508 (derepressed AmpC), surfactant 10%
  MIC: 32 µg/mL
P. aeruginosa; PAO1, P. aeruginosa ARC545 (PAO1), surfactant 0%
  MIC: 1 µg/mL
P. aeruginosa; PAO1, P. aeruginosa ARC545 (PAO1), surfactant 1%
  MIC: 1 µg/mL
P. aeruginosa; PAO1, P. aeruginosa ARC545 (PAO1), surfactant 2.5%
  MIC: 1 µg/mL
P. aeruginosa; PAO1, P. aeruginosa ARC545 (PAO1), surfactant 5%
  MIC: 1 µg/mL
P. aeruginosa; PAO1, P. aeruginosa ARC545 (PAO1), surfactant 10%
  MIC: 1 µg/mL
P. aeruginosa; P. aeruginosa ARC2761 (Clinical isolate), surfactant 0%
  MIC: 2 µg/mL
